From PubChem BioAssay AID1645865 (Buhrlage Lab, Dana-Farber Cancer Institute and Novartis …, 2021)
Active and inactive are the calls of the source.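 Rule for the calls: active = maximal inhibition of the USP30 enzyme reaching 30% or more across the dose series; inactive = the rest.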

What follows are molecules tested against Ubiquitin carboxyl-terminal hydrolase 30 (Homo sapiens) (UniProt Q70CQ3) (assay: ubiquitin-specific protease 30 DUB inhibitors, concentration-effect, biochemical, validation of primary actives (AID 1645865)). Settings: purified USP30, Ub-rhodamine cleavage, fluorescence, 2 h.
Ubiquitin carboxyl-terminal hydrolase 30 (Homo sapiens), sequence (Q70CQ3 whole entry, looked up): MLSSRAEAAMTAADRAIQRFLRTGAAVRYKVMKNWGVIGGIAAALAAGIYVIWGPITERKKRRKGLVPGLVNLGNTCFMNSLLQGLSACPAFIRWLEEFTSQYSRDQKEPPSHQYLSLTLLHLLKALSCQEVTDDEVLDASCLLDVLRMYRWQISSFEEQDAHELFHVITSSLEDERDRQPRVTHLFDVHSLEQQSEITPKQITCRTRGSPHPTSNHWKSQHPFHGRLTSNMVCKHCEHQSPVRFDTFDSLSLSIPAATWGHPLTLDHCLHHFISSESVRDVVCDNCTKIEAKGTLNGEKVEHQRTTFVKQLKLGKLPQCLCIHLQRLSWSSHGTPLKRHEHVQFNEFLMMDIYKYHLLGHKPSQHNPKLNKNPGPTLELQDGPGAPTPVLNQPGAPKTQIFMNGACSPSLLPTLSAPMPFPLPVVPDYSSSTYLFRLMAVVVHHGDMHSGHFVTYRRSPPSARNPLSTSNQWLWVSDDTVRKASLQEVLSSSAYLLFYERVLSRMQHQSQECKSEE
Cc1ccc(OCC(=O)Nc2cccc(-c3nc4ncccc4o3)c2)c(C)c1 gave an IC50 of 34 µM. In the case of CCNc1nc(SCC(C)=O)nc2sc3c(c12)CCC(C)C3 (centres undefined), the IC50 is reported as > 50 µM (inactive). For Cc1ccccc1-c1noc(-c2ccccc2OCC(=O)NC(C)C)n1, the IC50 was > 50 µM (inactive). For COc1cccc(NC(=O)c2ccc(-c3csc(C)n3)cc2)c1, the IC50 was > 50 µM (inactive). For CC1OC1C(=O)[C@]1(O)[C@H](C)[C@@H](O)[C@@]23O[C@@]2([C@H](O)c2c(O)cccc2C3=O)[C@H]1O (some centres undefined), the IC50 was > 50 µM (inactive). For O=S(c1ccc2ccccc2c1)c1cnns1 (centres undefined), the IC50 was > 50 µM (inactive). CCc1ccc(OCc2nnc(SCC(=O)Nc3ccccc3OC)n2Cc2ccccc2)cc1 was tested, and the IC50 was > 50 µM (inactive). With CC(=O)Nc1cc2cc(-n3cccc3)ccc2oc1=O the IC50 was > 50 µM (inactive). Molecule Cc1cc(NC(=O)c2cc(-c3cccnc3)n[nH]2)ccc1Br has an IC50 of 1.26 µM. In the case of CC(C)CC(NC(=O)c1ccc(Cl)cc1Cl)c1nc2ccccc2[nH]1 (centres undefined), the IC50 is reported as > 50 µM (inactive). Cc1cc(C2CC(=O)Nc3c2c(C)nn3-c2nc3ccccc3[nH]2)c(C)s1 (centres undefined) gave an IC50 of 26.5 µM. CCC(=O)Nc1ccccc1-c1nc2ccccc2n(CC(=O)Nc2cc(OC)ccc2OC)c1=O gave an IC50 of 18.1 µM. Work on CC(=O)c1cc2c(=O)c3c(C(=O)O)c(O)c(O)cc3oc2c(C(C)=O)c1-c1coc2cc(O)c(O)c(C(=O)O)c2c1=O yielded an IC50 of 4.57 µM. In the case of Cc1ccc2c(c1C)NC(=O)[C@]21[C@@H]2C(=O)N(c3cccc(Cl)c3)C(=O)[C@@H]2[C@@H]2CCCN21, the IC50 is reported as > 50 µM (inactive). COc1ccc(N(CC(=O)Nc2cccc(F)c2)S(=O)(=O)c2ccc(OC)c(OC)c2)cc1 was tested, and the IC50 was 17.6 µM. For Cc1cccc(N2CCN(C(=O)c3nnn(-c4ccc(F)cc4)n3)CC2)c1, the IC50 was > 50 µM (inactive). In the case of Cn1ccc2c(cc(C(=O)NCCC3=CCCCC3)n2C)c1=O, the IC50 is reported as > 50 µM (inactive). For Cc1c(Cl)cccc1NC(=O)Cn1c(=O)c2ccccc2n2nncc12, the IC50 was > 50 µM (inactive). In the case of CC(C)(C)C(=O)C1C2C(=O)N(Cc3ccccc3)C(=O)C2C2c3ccccc3C=CN12 (centres undefined), the IC50 is reported as > 50 µM (inactive). Cc1cc(C(F)(F)F)n(-c2ccc(NC(=O)Nc3cccc(C(F)(F)F)c3)cc2)n1 was tested, and the IC50 was 8.68 µM. With Cc1ccc(CN2CCCn3nc(C(=O)NCc4ccccc4C)cc3C2=O)cc1 the IC50 was 31.5 µM. For O=C(c1ccsc1)N1CCC2(C1)Nc1cccnc1NC2=NC1CCCC1 (centres undefined), the IC50 was > 50 µM (inactive). CCc1ccc2c(c1)[C@]1(C(=O)N2)[C@@H]2C(=O)N(c3ccc(Cl)cc3Cl)C(=O)[C@@H]2[C@@H]2CCCN21 was tested, and the IC50 was > 50 µM (inactive). In the case of Cc1ccc(NC(=O)CCC(=O)Nc2ccc3nc(N4CCCCC4)cc(C)c3c2)c(Br)c1, the IC50 is reported as 36.4 µM. Molecule O=C(CSc1ncnc2c1oc1ccccc12)Nc1ccc2c(c1)OCCO2 has an IC50 of 18.7 µM. For Cc1ccn(-c2ccc(NC(=O)C3CCCCC3)cc2)n1, the IC50 was 17.2 µM. Cc1cc(=O)n(CC(=O)Nc2ccccc2F)c(Nc2ccc(F)cc2)n1 was tested, and the IC50 was 14.2 µM. Work on COc1ccc(C2/C(=C(\O)c3ccccc3)C(=O)C(=O)N2c2nc3ccc(F)cc3s2)cc1 (centres undefined) yielded an IC50 of 43.1 µM. With CCOc1ccc2c(c1)c(=O)c(C(=O)c1ccccc1)cn2CC(=O)Nc1ccccc1 the IC50 was 4.27 µM. In the case of Cc1ccc2c(c1)N=C(c1ccc([N+](=O)[O-])cc1)CO2, the IC50 is reported as > 50 µM (inactive). With COCCNC(=O)c1ccn(-c2ccc3ccc(-c4ccncc4)cn23)n1 the IC50 was > 50 µM (inactive). COCCCn1c(SCC(=O)Nc2ccccc2C(=O)OC)nc2ccccc2c1=O gave an IC50 of 25.7 µM. In the case of Cc1ccccc1OCCC(=O)Nc1cccc(S(=O)(=O)Nc2ccccc2Cl)c1, the IC50 is reported as > 50 µM (inactive). With Cc1cc(C(F)(F)F)n2nc(C3CCN(C(=O)c4cnn(C)c4C)C3)cc2n1 (centres undefined) the IC50 was > 50 µM (inactive). Molecule O=C(NCCc1ccccn1)c1cc(-c2ccc(Br)cc2)n[nH]1 has an IC50 of 16.4 µM. Molecule CN1C(=O)COc2ccc(NC(=O)c3cc(-c4ccccc4)on3)cc21 has an IC50 of 14.1 µM. For Cc1ccc(C(=O)NCc2ccc(C(=O)Nc3ccc(C)c(C)c3)o2)cc1, the IC50 was 21.4 µM. With COc1cccc(N2CCN(C(=O)CCNS(=O)(=O)c3ccc4c(c3)CCC(=O)N4)CC2)c1 the IC50 was > 50 µM (inactive). Cc1ccn(-c2ccc(NC(=O)c3ccccc3Sc3ccccc3C#N)cc2)n1 showed an IC50 of 34.9 µM. Molecule Cc1nn(Cc2ccccc2)c2sc(C(=O)Nc3nc4ccccc4[nH]3)cc12 has an IC50 of 19.4 µM. With CC(=O)c1ccc(NC(=O)C2CCN(c3cncnc3N3CCCC3)CC2)cc1 the IC50 was > 50 µM (inactive). Molecule Cc1ccc2nc(NC(=O)CSc3nnc(-c4ccncc4)n3C3CC3)sc2c1 has an IC50 of 2.81 µM. In the case of O=C(COc1cccc(C(=O)NCc2ccccc2)c1)Nc1ccc(Oc2ccccc2)cc1, the IC50 is reported as > 50 µM (inactive). With Cc1nn(-c2cccc(F)c2)c2c1C(C(=O)c1ccc(Cl)s1)CC(=O)N2 (centres undefined) the IC50 was 32.5 µM. O=C(c1ccco1)N1CCC2(CC1)CC1(CO2)Nc2ccccc2-n2cccc21 (centres undefined) was tested, and the IC50 was > 50 µM (inactive). For O=S(=O)(O)c1cc2cc3ccccc3cc2[nH]1, the IC50 was > 50 µM (inactive). In the case of O=C(COC(=O)c1ccc2[nH]c3c(c2c1)CCCC3)Nc1ccc2c(c1)OCO2, the IC50 is reported as 37.7 µM. In the case of Cc1cc(N2CCC(NC(=O)NCc3ccc(F)cc3)C2=O)ccc1F (centres undefined), the IC50 is reported as 7.68 µM. Molecule CCc1cccc2c(C(=O)COc3ccc(C#N)cc3)c[nH]c12 has an IC50 of 11.3 µM.
